According to patent publication US20250161478A1, “LINKER PAYLOADS AND CONJUGATES THEREOF” (priority 2021, published 2025):
Read-outs that look alike come from different tables or passages of the source.

What was measured:
[1] = test system: B16-F10 mouse melanoma tumors; test: In vivo efficacy of PNU-ADCs in B16-F10 mouse melanoma model (Example 31); parameters: species or system mice
Protocol: In vivo anti-tumor efficacy of anti-TYRP1 ADCs (TAPeD, FLPeD, CHPeD and FLCPeMg) was evaluated in the B16-F10 mouse melanoma model as described above. […] Tumor growth was followed by palpation, and ADC dosings were administered when tumor sizes reached 60-110 mm^3, between 2-7 days after the inoculation. […] A single i.v. injection of 5 mg/kg ADC in PBS was given on the injection day and the tumor sizes were followed for at least 28 days. […] Another xenograft experiment was performed similarly as above. In this experiment, 10 xenografted mice received no treatment, while 10 xenografted mice were given three i.v. doses of 10 mg/kg TA99 antibody on days 2, 7 and 12 after the inoculation (3×10 mg/kg at 5 day intervals). In every one of these 20 mice the tumors grew to >200 mm^3 during 28 days' follow-up period.

[2] = In vivo tolerability of PNU-ADCs in normal mice; parameters: species or system C57BL/6J mice; conditions: for Dose-limiting toxicity dose level / MTD (maximum tolerated dose): single i.v. dose; for Dose-limiting toxicity dose level: n=3, followed up to 30 days; for MTD (maximum tolerated dose): n=3, next lower dose below the dose-limiting toxicity dose level
Protocol: Tolerability and safety of ADCs conjugated with PNU-EDA linker-payloads were tested in normal C57BL/6J mice. Female young adult mice at the age of 8-10 weeks were used, 3 mice/group (n=3). […] Clinical signs, body weight and general behavior of the animals were observed regularly. Dose-limiting toxicity was observed as either over 10% reduction of average body weight in the group or acute toxicity in any animal in the group. Maximum tolerated dose (MTD) was determined as the next lower dose below the dose-limiting toxicity dose level. ADCs were prepared as described above and a single i.v. dose of the ADC was given on the first day of the study. The mice were followed for up to 30 days if no dose-limiting toxicity was observed.

[3] = test system: IGR-1 human melanoma cells; test: Cytotoxicity of ADCs, PrestoBlue cell viability, IGR-1 cells; type: cell-based
Protocol: (§1) Toxicity of anti-TYRP ADCs was tested with SK-MEL-28 (ATCC: HTB®-72™) SK-MEL-30 (DSMZ: ACC 151) and/or IGR-1 (DSMZ: ACC 236) human melanoma cells.
IGR-1 cells were seeded in 96-well plate, 2000 cells/well, and cultivated in 10% FBS/DMEM-medium under standard cell culture conditions. After overnight culture, the diluted ADCs or unconjugated antibodies (concentration range 0.1 nM-300 nM) were added to cells, and incubated for 3-5 days. The viability of the cells was evaluated with PrestoBlue cell viability reagent.
(§2) The AVG % values and standard deviations were transferred to GraphPad Prism 9.1.2.

[4] = test system: SK-MEL-30 human melanoma cells; test: Cytotoxicity of ADCs, PrestoBlue cell viability, SK-MEL-30 cells; type: cell-based; conditions: incubated 3-5 days, ranges are over n experiments
Protocol: as §1
SK-MEL-30 were seeded in 96-well plate, 2000 cells/well or 3000 cells/well and cultivated in 10% FBS/RPMI 1640-medium under standard cell culture conditions. After overnight culture, diluted ADCs or antibodies were added to the cells, and incubated for 3-5 days. For cell control, the cells were treated with medium without ADC. The viability of the cells was evaluated with PrestoBlue cell viability reagent.
as §2

[5] = test system: B16-F10 mouse melanoma tumors; test: In vivo efficacy in B16-F10 syngeneic tumor mice (Example 9); parameters: species or system C57BL/6J mice; conditions: single i.v. 5 mg/kg two days after inoculation, six mice/group
Description: In vivo anti-tumor efficacy of ADC of monoclonal TA99 IgG2a antibody, glycoconjugated TA99 ADC with DBCO-Val-Ser(GlcA)-EDA-PNU payloads (TA99-PNU ADC, DAR=2) and TA99 ADC with maleimidoacetyl-EDA-PNU payloads (TA99-M-PNU ADC, DAR=4), prepared and maleimide-stabilized as described above, was compared to non-treated mice. B16-F10 mouse melanoma cells were obtained from the ATCC (USA) and cultured according to the manufacturer's instructions to study efficacy of antibody-drug conjugates in highly treatment-resistant syngeneic tumors in female adult C57BL/6J mice at the age of about 8-weeks. […] Tumor growth was followed by palpation. […] The first dosings were administered two days after the inoculation due to the high take rate and very rapid growth of the tumors. Mice were randomly divided into study groups. […] Unconjugated antibody (TA99/anti-gp75, Invivogen) was used in this study as the control treatment.

[6] = test system: HL-60 acute myeloid leukemia (AML) cell xenograft tumors; test: In vivo efficacy of anti-CD33 ADCs in HL-60 leukemia xenograft; conditions: single i.v. 10 mg/kg
Protocol: In vivo anti-leukemia xenograft efficacy was evaluated for anti-CD33 ADCs LNAuM (DAR=8.0) and GMAuM (DAR=8.0), as well as anti-CD33 antibodies LN and GM. HL-60 acute myeloid leukemia (AML) cells were obtained from the ATCC and cultured according to the manufacturer's instructions. The study was performed at the TCDM/Central Animal Laboratory, University of Turku, Finland, according to the appropriate ethical committee approval. Cells for inoculation to mice were prepared in vigorous exponential growth phase. 2 million cells in 50% Matrigel were inoculated s.c. to the flank of each mouse (female athymic nude mice between 8-10 weeks of age). Clinical signs and general behavior of the animals was observed regularly. […] Tumor growth was followed by palpation. After caliper measurement, tumor volume was calculated according to 0.5×length×width^2. The first dosings were administered when average tumor volume reached 100 mm^3. […] Intravenous (i.v.) treatment of 10 mg/kg either antibody or ADC in PBS was given once (single dose regimen), while the control group received no treatment.

[7] = ADC concentration in serum by ELISA (systemic exposure); type: in vivo, mice; conditions: trapezoidal method, 10 mg/kg i.v.
Protocol: Serum samples (from 40 μl blood) were taken from each mouse in the treatment groups as well as two mice in the control group to follow systemic exposure of the compounds on day 1, day 5 and day 9 after dosing. ADC concentrations in the serum samples were analyzed by ELISA using FastELISA Human immunoglobulin quantification kit (RD-Biotech) according to the manufacturer's instructions. Between 1 d-9 d, LNAuM had better systemic exposure than GMAuM and GMAuM was eliminated faster from circulation by Day 9 than LNAuM.

[8] = test system: Ramos.2G6.4C10 (no CD33 expression) cells; test: Cytotoxicity of anti-CD33 ADCs in Ramos cells; type: cell-based
Description: as §2

[9] = test system: Daudi (no CD33 expression) cells; test: Cytotoxicity of anti-CD33 ADCs in Daudi cells; type: cell-based
Description: as §2

KG-1 cells = test: Cytotoxicity of anti-CD33 ADCs in KG-1 cells; type: cell-based; conditions: for IC50: KG-1 cells treated for 3 or 4 days, n = 3
Description: as §2

[10] = test system: CD33- cell lines Ramos and Daudi versus CD33+ cells; test: In vitro therapeutic window, CD33- versus CD33+ cell lines; type: cell-based; conditions: IC50 not reached at 300 nM in Ramos and Daudi versus CD33+ cells
MOLM-13 cells = test: Cytotoxicity of anti-CD33 ADCs in MOLM-13 cells; type: cell-based; conditions: MOLM-13 cells treated for 3 days
Description: as §2

HL-60 cells = test: Cytotoxicity of anti-CD33 ADCs in HL-60 cells; type: cell-based; conditions: HL-60 cells treated for 5 days
Description: as §2

K-562 (low CD33) cells = test: Cytotoxicity of anti-CD33 ADCs in K-562 cells; type: cell-based; conditions: K-562 (low CD33) cells treated for 3 days
Description: as §2

[11] = single 5 mg/kg i.v. dose on days 2-7 when tumors reach 60-110 mm^3, 6 mice/group, at least 28 days
[12] = 5 mice/group, 30 days follow-up

Chimeric TA99-DBCO-Val-Ser(G1cA)-EDA-PNU [CHPeD]
Number of mice with <200 mm^3 tumor at end of study [1, 11]: 2

FLCPeMa: cysteine engineered flanvotumab HC N299C conjugated with PeMa (MA-Ac-EDA-PNU), DAR 1.7
Dose-limiting toxicity dose level [2]: 20 mg/kg | MTD (maximum tolerated dose) [2]: 15 mg/kg

FLCPeMala: cysteine engineered flanvotumab HC N299C conjugated with PeMala (MA-Ac-β-Ala-EDA-PNU), DAR 2.0
MTD (maximum tolerated dose) [2]: 5 mg/kg | IC50 values against IGR-1 cells (in words) [3]: picomolar

FLCPeMg: cysteine engineered flanvotumab HC N299C conjugated with PeMg (MA-Ac-β-Ala-VS(GlcA)-EDA-PNU), DAR 2.2
Dose-limiting toxicity dose level [2]: 12.5 mg/kg | Number of mice with <200 mm^3 tumor at end of study [1, 11]: 2 | IC50 values against IGR-1 cells (in words) [3]: picomolar

Flanvotumab-DBCO-Val-Ser(GlcA)-EDA-PNU [FLPeD]
Dose-limiting toxicity dose level [2]: 15 mg/kg | MTD (maximum tolerated dose) [2]: 10 mg/kg | Number of mice with <200 mm^3 tumor at end of study [1, 11]: 2 | IC50 [4]: 1.3 to 8.2 nM | IC50 values against IGR-1 cells (in words) [3]: picomolar

TA99
toxicity (in words) ([2]; 20 mg/kg or 30 mg/kg): No toxicity was observed | Number of mice with <200 mm^3 tumor at end of study ([1]; 3 × 10 mg/kg i.v. on days 2, 7 and 12 after inoculation, 10 mice/group, 28 days): 0 | tumor growth (in words) [5]: tumors grew rapidly

gemtuzumab
tumor growth (in words) [6, 12]: tumors grew fast

gemtuzumab-maleimidoacetyl-β-Ala-Val-Ser(Glc)-PAB-MMAU [GMAuM]
AUC(1-9 d), partial area under curve between 1 d-9 d [7]: 160 mg·days/L | toxicity (in words) [6]: no toxicity was detected | mice in which tumors disappeared without regrowth [6, 12]: 5/5

lintuzumab
Unconjugated antibody: no effect up to (highest concentration tested) ([8]; Ramos cells): > 300 nM | Unconjugated antibody: no effect up to (highest concentration tested) [9]: > 300 nM | Unconjugated antibody: no effect up to (highest concentration tested) (KG-1 cells; KG-1 cells): > 300 nM | duration of tumor growth inhibition ([6]; 5 mice/group): about 20 days

lintuzumab-maleimidoacetyl-β-Ala-Val-Ser(Glc)-PAB-MMAU [LNAuM]
in vitro therapeutic window [10]: greater than 10000 | IC50 ([8]; Ramos.2G6.4C10 cells, no CD33 expression): > 300 nM | AUC(1-9 d), partial area under curve between 1 d-9 d [7]: 200 mg·days/L | IC50 (MOLM-13 cells; n = 3, read-out: IC50 (AVG ± standard deviation)): 0.039 ± 0.016 nM | IC50 (MOLM-13 cells; read-out: IC50): 0.023 to 0.055 nM | IC50 ([9]; no CD33 expression, treated for 3 days): > 300 nM | IC50 (HL-60 cells; n = 4, read-out: IC50 (AVG ± standard deviation)): 0.272 ± 0.181 nM | IC50 (HL-60 cells; range over n experiments, read-out: IC50): 0.024 to 0.459 nM | IC50 (K-562 (low CD33) cells): 24 to 66 nM | IC50 (KG-1 cells; read-out: IC50): 0.144 to 0.313 nM | IC50 (KG-1 cells; read-out: IC50 (AVG ± standard deviation)): 0.242 ± 0.088 nM | toxicity (in words) [6]: no toxicity was detected | mice in which tumors disappeared without regrowth [6, 12]: 5/5
